Laboratory results taken from patent US20230129866A1 (PureTech LYT 100, Inc., priority 2020, published 2023).

How the values were obtained:
L929 cells [1] = assay: TGF-induced collagen synthesis in L929 cells, 6-wells (SIRCOL); type: cell-based; conditions: 72 hrs, FIG. 4B
Protocol: 100,000 L929 cells were plated in complete DMEN and incubated until confluency for 3 days. Medium was removed and complete DMEM containg Prolin ([…]) and ascorbic acid (10 μM) was added. […] Cells were further incubated for 72 hrs. Supernatant was removed, cells were washed with cold PBS, 1 ml SIRCOL reagent was added onto the cells and cells were scraped off, samples were shaken for 5 h.at RT, centrifuged at 10.000 rpm for 5 min, supernatant was removed, pellet was dissolved in 0.5 M acetic acid to remove unbound dye, and re-centrifuged at 10.000 rpm for 5 min, supernatant was removed and final pelet was dissolved in 1 ml 0.5M NaOH, shaken at RT for 5 h, 100 μl of resulted solution was placed in 96-well and O.D was determined at 600.

L929 cells [2] = assay: TGF-induced soluble collagen synthesis in L929 cells (ELISA); type: cell-based; conditions: 500 μM, 72 hrs, FIG. 4D
Protocol: Five thousand L929 cells were plated in complete DMEN and incubated until confluency for 3 days.

LPS-induced plasma TNFα = assay: LPS-induced plasma TNF-α after oral pretreatment in rats; type: in vivo, Sprague-Dawley rats; conditions: Mean ± St. Dev., n = 6-8; for Plasma TNFα concentrations 4 hours after LPS: vehicle 693 ± 553; for Plasma TNFα concentrations 1.5 hours after LPS: vehicle 75389 ± 29107
Protocol: LPS was diluted with sterile saline to […] and sonicated at 40° C. for 20 minutes to generate a stock solution and stored at 4° C. Each day of use, the stock solution was further diluted to 0.03 mg/mL in sterile saline.
Male Sprague-Dawley rats with indwelling femoral and jugular venous catheters (n=6-8 per dose and test article group) were used in this study. […] Sixty minutes after the oral dose, 0.03 mg/kg of LPS in 1 mL/kg saline was infused into the jugular vein.
Blood samples were collected from the femoral vein into heparin-coated syringes 15 minutes prior to the LPS infusion (45 minutes after oral doses of test article), 90 minutes after the LPS infusion and 4 hours after the LPS infusion. Plasma was prepared by centrifugation of the blood samples at 14,000 rpm for 10 minutes. Plasma samples were stored at −70 ° C. until analysis.

[3] = Phase 1 food effect study Part 2 (Cohort 5), single 500 mg dose fed vs fasted; type: in vivo, human; conditions: LYT-100 @500 mg single dose
Protocol: The comparison will be based on Day 1, Day 2 and Day 3 PK plasma samples after the first dose of study drug on Day 1 under fast and fed conditions of Part 2.
Subjects will be admitted to the CRU on Day-1 and will fast overnight for at least 10 h.

[4] = 30 mg/kg oral pretreatment 1 hour prior to LPS injection
[5] = 100 mg/kg oral pretreatment 1 hour prior to LPS injection
[6] = 300 mg/kg oral pretreatment 1 hour prior to LPS injection

[2H]C([2H])([2H])c1ccc(=O)n(-c2ccccc2)c1 [LYT-100, 5-(methyl-d3)-1-phenylpyridin-2-(1H)-one]
Effect on TGF-induced collagen synthesis (L929 cells [1]; 500 μM 1 hour prior to TGF-β 5 ng/ml): inhibits | Effect on collagen synthesis in the absence of added TGF-β (L929 cells [1]; 500 μM): significantly inhibits | Effect on soluble collagen levels in the absence of TGF-β-induction (L929 cells [2]): signficantly reduced | Effect on TGF-β-induced soluble collagen levels (L929 cells [2]; TGF-β 5 ng/ml): significantly inhibits | Plasma TNFα concentrations 4 hours after LPS (LPS-induced plasma TNFα; [4]): 274 ± 95 pg/mL | Plasma TNFα concentrations 1.5 hours after LPS (LPS-induced plasma TNFα; [4]): 46382 ± 23254 pg/mL | Plasma TNFα concentrations 4 hours after LPS (LPS-induced plasma TNFα; [5]): 129 ± 65 pg/mL | Plasma TNFα concentrations 1.5 hours after LPS (LPS-induced plasma TNFα; [5]): 6403 ± 4812 pg/mL | Plasma TNFα concentrations 4 hours after LPS (LPS-induced plasma TNFα; [6]): 79 ± 46 pg/mL | Plasma TNFα concentrations 1.5 hours after LPS (LPS-induced plasma TNFα; [6]): 3162 ± 2668 pg/mL | AUC, % Change Fed vs Fasted [3]: −19% | Cmax, % Change Fed vs Fasted [3]: −23% | Tmax, % Change Fed vs Fasted [3]: +25%
